Measurements as given in PubChem BioAssay AID192 (DTP/NCI, 2004).
“And” between values parts separate entries of the source, which are not always exact repeats. Equal values may be shown once. Inconclusive results and toxic doses are left out. The calls were made as follows: active = survival T/C of 150% or more; inactive = T/C below 125% in these data. Numbered stars: 1 amine (or outer) side, 2 acyl side, 3 side chain; on linkers, the order of the positions; unused ones are H or OH. Bridge positions count the residues as written; N and C are the ends. Square brackets hold non-standard residues; d marks the D form. Peptide text beside a SMILES is read from it. I, II: the chains in the order shown. Actinocin(1to9) = Cc1c2oc3c(C)ccc(C(=O)[*:2])c3nc-2c(C(=O)[*:1])c(N)c1=O; Hyp = O=C(O)[CH]1C[CH](O)CN1; NMeV = CN[CH](C(=O)O)C(C)C; Sar = CNCC(=O)O

Test system: BDF1 mice, B16 melanoma ip, median survival T/C
Experiment: NCI In Vivo Anticancer Drug Screen. Data for tumor model B16 Melanoma (intraperitoneal) in B6D2F1 (BDF1) mice
Details: endpoint: median survival time, higher = longer survival
In short: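 The ratio T/C compares compound-treated mice with vehicle-treated controls, using survival or tumor size as the endpoint in a transplantable tumor model.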

[1] = dose: 6.25 mg/kg/injection, schedule: Q01DX009 (ip), vehicle: saline with Tween-80
[2] = dose: 12.5 mg/kg/injection, schedule: Q01DX009 (ip), vehicle: saline with Tween-80
[3] = dose: 50.0 mg/kg/injection, schedule: Q01DX009 (ip), vehicle: saline with Tween-80
[4] = dose: 100.0 mg/kg/injection, schedule: Q01DX009 (ip), vehicle: saline with Tween-80
[5] = dose: 200.0 mg/kg/injection, schedule: Q01DX009 (ip), vehicle: saline with Tween-80
[6] = dose: 12.5 mg/kg/injection, schedule: Q04DX003 (ip), vehicle: saline with Tween-80
[7] = dose: 25.0 mg/kg/injection, schedule: Q01DX009 (ip), vehicle: saline with Tween-80
[8] = dose: 25.0 mg/kg/injection, schedule: Q04DX003 (ip), vehicle: saline with Tween-80
[9] = dose: 50.0 mg/kg/injection, schedule: Q04DX003 (ip), vehicle: saline with Tween-80
[10] = dose: 12.5 mg/kg/injection, schedule: Q01DX009 (ip), vehicle: Klucel (hydroxypropylcellulose) (HPC)
[11] = dose: 25.0 mg/kg/injection, schedule: Q01DX009 (ip), vehicle: Klucel (hydroxypropylcellulose) (HPC)
[12] = dose: 50.0 mg/kg/injection, schedule: Q01DX009 (ip), vehicle: Klucel (hydroxypropylcellulose) (HPC)
[13] = dose: 100.0 mg/kg/injection, schedule: Q01DX009 (ip), vehicle: Klucel (hydroxypropylcellulose) (HPC)
[14] = dose: 100.0 mg/kg/injection, schedule: Q04DX003 (ip), vehicle: saline with Tween-80

Measured: T/C

Cc1c2oc3c(C)ccc(C(=O)NC4C(=O)NC(C(C)C)C(=O)N5CCCC5C(=O)N(C)CC(=O)N(C)C(C(C)C)C(=O)OC4C)c3nc-2c(C(=O)NC2C(=O)NC(C(C)C)C(=O)N3CC(O)CC3C(=O)N(C)CC(=O)N(C)C(C(C)C)C(=O)OC2C)c(N)c1=O (stereo not drawn) (I: TV[Hyp][Sar][NMeV] / II: TVP[Sar][NMeV]; ester I:1-I:C, II:1-II:C; linker I:N-II:N via Actinocin(1to9); configuration not given here)
inactive: dose: 225.0 micrograms/kg/injection, schedule: Q04DX003 (ip), vehicle: saline + alcohol 120 % of control | dose: 450.0 micrograms/kg/injection, schedule: Q04DX003 (ip), vehicle: saline + alcohol 121 % of control | dose: 600.0 micrograms/kg/injection, schedule: Q04DX003 (ip), vehicle: saline + alcohol 95 % of control | dose: 900.0 micrograms/kg/injection, schedule: Q04DX003 (ip), vehicle: saline + alcohol 88 % of control
active: dose: 100.0 micrograms/kg/injection, schedule: Q01DX009 (ip), vehicle: saline + alcohol 152 % of control | dose: 150.0 micrograms/kg/injection, schedule: Q01DX009 (ip), vehicle: saline + alcohol 158 % of control

O=C1CC2(CCCCC2)CO1
inactive: dose: 0.09 mg/kg/injection, schedule: Q01DX009 (ip), vehicle: saline 102 % of control | dose: 0.19 mg/kg/injection, schedule: Q01DX009 (ip), vehicle: saline 95 % of control | dose: 0.39 mg/kg/injection, schedule: Q01DX009 (ip), vehicle: saline 91 % of control | dose: 0.78 mg/kg/injection, schedule: Q01DX009 (ip), vehicle: saline 95 % of control | dose: 1.56 mg/kg/injection, schedule: Q01DX009 (ip), vehicle: saline 95 % of control

CC(C)=CCC1=C(O)c2ccccc2C(=O)C1=O
inactive: [1] 90 % of control | dose: 8.33 mg/kg/injection, schedule: Q#B X027 (ip), vehicle: water 100 % of control | [2] 90 % of control | dose: 16.66 mg/kg/injection, schedule: Q#B X027 (ip), vehicle: water 103 % of control | dose: 16.66 mg/kg/injection, schedule: Q#B X027 (sc), vehicle: water 106 % of control | dose: 25.0 mg/kg/injection, schedule: Q#A X018 (oral), vehicle: water 90 % of control | dose: 33.33 mg/kg/injection, schedule: Q#B X027 (ip), vehicle: water 100 % of control | dose: 33.33 mg/kg/injection, schedule: Q#B X027 (oral), vehicle: water 100 % of control | dose: 33.33 mg/kg/injection, schedule: Q#B X027 (sc), vehicle: water 106 % of control | [3] 88 % of control and 97 % of control | dose: 50.0 mg/kg/injection, schedule: Q#A X018 (oral), vehicle: water 86 % of control | dose: 66.66 mg/kg/injection, schedule: Q#B X027 (ip), vehicle: water 96 % of control | dose: 66.66 mg/kg/injection, schedule: Q#B X027 (oral), vehicle: water 106 % of control | dose: 66.66 mg/kg/injection, schedule: Q#B X027 (sc), vehicle: water 93 % of control | [4] 95 % of control | dose: 100.0 mg/kg/injection, schedule: Q01DX018 (oral), vehicle: water 106 % of control | dose: 100.0 mg/kg/injection, schedule: Q#A X018 (oral), vehicle: water 100 % of control | dose: 133.33 mg/kg/injection, schedule: Q#B X027 (oral), vehicle: water 120 % of control | dose: 133.33 mg/kg/injection, schedule: Q#B X027 (sc), vehicle: water 93 % of control | dose: 175.0 mg/kg/injection, schedule: Q01DX018 (oral), vehicle: water 96 % of control | dose: 175.0 mg/kg/injection, schedule: Q#A X018 (oral), vehicle: water 113 % of control | [5] 95 % of control | dose: 200.0 mg/kg/injection, schedule: Q01DX009 (ip), vehicle: saline 119 % of control | dose: 250.0 mg/kg/injection, schedule: Q01DX018 (oral), vehicle: water 106 % of control | dose: 250.0 mg/kg/injection, schedule: Q#A X018 (oral), vehicle: water 106 % of control | dose: 325.0 mg/kg/injection, schedule: Q01DX018 (oral), vehicle: water 113 % of control

CN1CCN(C2=C(Cl)C(=O)c3ccccc3C2=O)CC1
inactive: dose: 1.25 mg/kg/injection, schedule: Q01DX009 (ip), vehicle: saline 95 % of control | dose: 2.5 mg/kg/injection, schedule: Q01DX009 (ip), vehicle: saline 88 % of control

COc1ccc(N=NNc2ccc(OC)cc2)cc1
inactive: dose: 5.0 mg/kg/injection, schedule: Q01DX009 (ip), vehicle: saline with Tween-80 106 % of control | [1] 90 % of control and 94 % of control | dose: 6.25 mg/kg/injection, schedule: Q04DX003 (ip), vehicle: saline with Tween-80 97 % of control and 105 % of control | dose: 10.0 mg/kg/injection, schedule: Q01DX009 (ip), vehicle: saline with Tween-80 109 % of control | [2] 86 % of control and 94 % of control | [6] 107 % of control and 113 % of control | dose: 16.5 mg/kg/injection, schedule: Q04DX003 (ip), vehicle: saline with Tween-80 95 % of control | dose: 20.0 mg/kg/injection, schedule: Q01DX009 (ip), vehicle: saline with Tween-80 109 % of control | [7] 93 % of control and 94 % of control | [8] 100 % of control and 107 % of control | dose: 37.5 mg/kg/injection, schedule: Q04DX003 (ip), vehicle: saline with Tween-80 100 % of control | dose: 40.0 mg/kg/injection, schedule: Q01DX009 (ip), vehicle: saline with Tween-80 112 % of control | [3] 97 % of control | [9] 110 % of control

CC(=O)CCN1C(=O)c2ccccc2C1=O
inactive: [10] 96 % of control | [11] 103 % of control | [12] 95 % of control (2×) and 101 % of control | [13] 99 % of control and 102 % of control | dose: 200.0 mg/kg/injection, schedule: Q01DX009 (ip), vehicle: Klucel (hydroxypropylcellulose) (HPC) 94 % of control and 98 % of control and 112 % of control

Cc1cc(C)c(OCC(O)CO)c(C)c1 (stereo not drawn)
inactive: [4] 104 % of control | [5] 93 % of control

CCc1ccc(C(=O)CCCCl)cc1
inactive: [3] 102 % of control | [4] 100 % of control | [5] 109 % of control

Clc1sc2ccccc2c1Cl
inactive: dose: 6.25 mg/kg/injection, schedule: Q01DX009 (ip), vehicle: Klucel (hydroxypropylcellulose) (HPC) 93 % of control | [10] 92 % of control | [11] 91 % of control | [12] 90 % of control

O=[N+]([O-])c1ccc(Sc2ccncn2)c([N+](=O)[O-])c1
inactive: [2] 100 % of control and 109 % of control | [7] 94 % of control and 101 % of control | [3] 95 % of control and 106 % of control | [4] 108 % of control

CCOC(=O)C1=C(O)c2c(sc(C)c2C)N(S(=O)(=O)c2ccc(C)cc2)CC1
inactive: [6] 116 % of control | [8] 113 % of control | [9] 111 % of control | [14] 111 % of control | dose: 200.0 mg/kg/injection, schedule: Q04DX003 (ip), vehicle: saline with Tween-80 108 % of control

CSCCC(C)C
inactive: [7] 95 % of control | [3] 89 % of control | [9] 110 % of control | [4] 95 % of control | [14] 97 % of control

O=C(O)C(O)C(=O)O.[NH-]C1CCCCC1[NH-].[Pt+2]
active: dose: 20.0 mg/kg/injection, schedule: Q01DX009 (ip), vehicle: other 161 % of control | dose: 40.0 mg/kg/injection, schedule: Q01DX009 (ip), vehicle: other 150 % of control

O=CCC(O)C(O)C(O)CO (stereo not drawn)
inactive: dose: 300.0 mg/kg/injection, schedule: Q01DX009 (ip), vehicle: suspension in saline 104 % of control | dose: 600.0 mg/kg/injection, schedule: Q01DX009 (ip), vehicle: suspension in saline 100 % of control | dose: 1200.0 mg/kg/injection, schedule: Q01DX009 (ip), vehicle: suspension in saline 100 % of control | dose: 1800.0 mg/kg/injection, schedule: Q01DX009 (ip), vehicle: suspension in saline 101 % of control

O=[N+]([O-])c1cccc(S(=O)(=O)N2CCN(S(=O)(=O)c3cccc([N+](=O)[O-])c3)C2)c1
inactive: dose: 100.0 mg/kg/injection, schedule: Q04DX003 (ip), vehicle: Klucel (hydroxypropylcellulose) (HPC) 109 % of control | dose: 200.0 mg/kg/injection, schedule: Q04DX003 (ip), vehicle: Klucel (hydroxypropylcellulose) (HPC) 102 % of control | dose: 400.0 mg/kg/injection, schedule: Q04DX003 (ip), vehicle: Klucel (hydroxypropylcellulose) (HPC) 94 % of control

Cc1ccc(NC(=O)c2ccc([N+](=O)[O-])cc2)cc1Cl
inactive: [11] 109 % of control | [12] 99 % of control | [13] 99 % of control
